Laboratory results published in PubChem BioAssay AID248 (DTP/NCI, 2004).
Where “and” joins values, the source holds several entries; their conditions need not be identical. Equal entries are not always repeated. Inconclusive results and toxic doses are left out. No stated cut-off is given here; in the data, active means T/C of 150% or more; inactive means T/C below 125%. Square brackets hold non-standard residues; d marks the D form. Peptide text beside a SMILES is read from it. * marks the point of attachment. ξ: configuration not given here. Cbz = O=C(OCc1ccccc1)*; ξP = O=C(O)C1CCCN1

Test system: L1210 leukemia ip in BDF1 mice, survival T/C
Assay: NCI In Vivo Anticancer Drug Screen. Data for tumor model L1210 Leukemia (intraperitoneal) in B6D2F1 (BDF1) mice
Conditions: endpoint: mean survival time, higher = longer survival
How it was run: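 Ratio derived from survival: compound-dosed mice over vehicle-dosed mice, all bearing a transplantable tumor.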

[1] = dose: 100.0 mg/kg/injection, schedule: Q04DX003 (ip), vehicle: saline with Tween-80
[2] = dose: 200.0 mg/kg/injection, schedule: Q04DX003 (ip), vehicle: saline with Tween-80
[3] = dose: 100.0 mg/kg/injection, schedule: Q04DX003 (ip), vehicle: Klucel (hydroxypropylcellulose) (HPC)
[4] = dose: 200.0 mg/kg/injection, schedule: Q04DX003 (ip), vehicle: Klucel (hydroxypropylcellulose) (HPC)
[5] = dose: 400.0 mg/kg/injection, schedule: Q04DX003 (ip), vehicle: Klucel (hydroxypropylcellulose) (HPC)
[6] = dose: 100.0 mg/kg/injection, schedule: Q01DX001 (ip), vehicle: carboxymethylcellulose (CMC)
[7] = dose: 200.0 mg/kg/injection, schedule: Q01DX001 (ip), vehicle: carboxymethylcellulose (CMC)
[8] = dose: 400.0 mg/kg/injection, schedule: Q01DX001 (ip), vehicle: carboxymethylcellulose (CMC)
[9] = dose: 25.0 mg/kg/injection, schedule: Q01DX009 (ip), vehicle: Klucel (hydroxypropylcellulose) (HPC)
[10] = dose: 25.0 mg/kg/injection, schedule: Q04DX003 (ip), vehicle: Klucel (hydroxypropylcellulose) (HPC)
[11] = dose: 50.0 mg/kg/injection, schedule: Q01DX009 (ip), vehicle: Klucel (hydroxypropylcellulose) (HPC)
[12] = dose: 50.0 mg/kg/injection, schedule: Q04DX003 (ip), vehicle: Klucel (hydroxypropylcellulose) (HPC)

Measured: T/C

CC(C)CCCC(C)C1CCC2C3CC=C4C=C(OC(=O)c5ccccc5)CCC4(C)C3CCC12C (stereo unspecified)
inactive: dose: 100.0 mg/kg/injection, schedule: Q01DX009 (ip), vehicle: saline with Tween-80 90 % of control | [1] 97 % of control | dose: 200.0 mg/kg/injection, schedule: Q01DX009 (ip), vehicle: saline with Tween-80 87 % of control | [2] 95 % of control | dose: 400.0 mg/kg/injection, schedule: Q01DX009 (ip), vehicle: saline with Tween-80 95 % of control | dose: 400.0 mg/kg/injection, schedule: Q04DX003 (ip), vehicle: saline with Tween-80 87 % of control

COC(=O)C1CCCN1C(=O)CNC(=O)OCc1ccccc1 (stereo not drawn) (Cbz-Gly-[ξP]-OMe)
inactive: dose: 100.0 mg/kg/injection, schedule: Q04DX003 (ip), vehicle: saline 97 % of control | dose: 200.0 mg/kg/injection, schedule: Q04DX003 (ip), vehicle: saline 101 % of control | dose: 400.0 mg/kg/injection, schedule: Q04DX003 (ip), vehicle: saline 95 % of control

Cc1ccc(S(=O)(=O)OCC2OC(n3cnc4c(N)ncnc43)C(O)C2O)cc1 (stereo unspecified)
inactive: dose: 100.0 mg/kg/injection, schedule: Q01DX005 (ip), vehicle: saline 105 % of control | dose: 200.0 mg/kg/injection, schedule: Q01DX005 (ip), vehicle: saline 95 % of control

COc1ccc(CN(CCOC(=O)c2ccc(OC)cc2)CCN(CCOC(=O)c2ccc(OC)cc2)Cc2ccc(OC)cc2)cc1
inactive: dose: 12.5 mg/kg/injection, schedule: Q01DX009 (ip), vehicle: other 91 % of control | dose: 25.0 mg/kg/injection, schedule: Q01DX009 (ip), vehicle: other 86 % of control | dose: 25.0 mg/kg/injection, schedule: Q01DX009 (ip), vehicle: water 88 % of control | dose: 50.0 mg/kg/injection, schedule: Q01DX009 (ip), vehicle: other 91 % of control | dose: 50.0 mg/kg/injection, schedule: Q01DX009 (ip), vehicle: water 93 % of control | dose: 100.0 mg/kg/injection, schedule: Q01DX009 (ip), vehicle: other 88 % of control | dose: 100.0 mg/kg/injection, schedule: Q01DX009 (ip), vehicle: water 87 % of control | dose: 200.0 mg/kg/injection, schedule: Q01DX009 (ip), vehicle: water 88 % of control | dose: 400.0 mg/kg/injection, schedule: Q01DX009 (ip), vehicle: water 92 % of control

N#Cc1c(F)c(F)c(Oc2c(F)c(F)c(Oc3c(F)c(F)c(C#N)c(F)c3F)c(F)c2F)c(F)c1F
inactive: dose: 100.0 mg/kg/injection, schedule: Q01DX001 (ip), vehicle: Klucel (hydroxypropylcellulose) (HPC) 97 % of control | [3] 94 % of control | dose: 200.0 mg/kg/injection, schedule: Q01DX001 (ip), vehicle: Klucel (hydroxypropylcellulose) (HPC) 97 % of control | [4] 94 % of control | dose: 400.0 mg/kg/injection, schedule: Q01DX001 (ip), vehicle: Klucel (hydroxypropylcellulose) (HPC) 89 % of control | [5] 92 % of control

CC(CC(C#N)(c1ccccc1)c1ccccc1)OS(C)(=O)=O (stereo unspecified)
inactive: [6] 94 % of control | [7] 94 % of control | [8] 94 % of control

CC(/C=N/NC(N)=S)=N\N=C(N)N
inactive: dose: 15.0 mg/kg/injection, schedule: Q01DX Z (ip), vehicle: carboxymethylcellulose (CMC) 98 % of control | dose: 30.0 mg/kg/injection, schedule: Q01DX Z (ip), vehicle: carboxymethylcellulose (CMC) 101 % of control | dose: 60.0 mg/kg/injection, schedule: Q01DX Z (ip), vehicle: carboxymethylcellulose (CMC) 98 % of control | dose: 120.0 mg/kg/injection, schedule: Q01DX Z (ip), vehicle: carboxymethylcellulose (CMC) 98 % of control

COC1OC(C)C(O)C(O)[CH]1[Hg][O]C(C)=O (stereo unspecified)
inactive: dose: 3.12 mg/kg/injection, schedule: Q01DX009 (ip), vehicle: saline 113 % of control | dose: 5.0 mg/kg/injection, schedule: Q01DX001 (ip), vehicle: saline 110 % of control | dose: 6.25 mg/kg/injection, schedule: Q01DX009 (ip), vehicle: saline 89 % of control | dose: 6.25 mg/kg/injection, schedule: Q04DX003 (ip), vehicle: saline 102 % of control | dose: 10.0 mg/kg/injection, schedule: Q01DX001 (ip), vehicle: saline 103 % of control | dose: 12.5 mg/kg/injection, schedule: Q04DX003 (ip), vehicle: saline 106 % of control

CCOc1ccc(NC(C)=O)c(O)c1
inactive: dose: 75.0 mg/kg/injection, schedule: Q01DX001 (ip), vehicle: saline 101 % of control | dose: 150.0 mg/kg/injection, schedule: Q01DX001 (ip), vehicle: saline 98 % of control

O=c1oc(-c2cc([N+](=O)[O-])ccc2Cl)nc2ccccc12
inactive: [1] 100 % of control | [2] 93 % of control

Cc1cccc(CN2CCN(C(c3ccccc3)c3ccc(Cl)cc3)CC2)c1 (stereo unspecified)
inactive: [9] 100 % of control | [10] 100 % of control | [11] 100 % of control | [12] 110 % of control | dose: 100.0 mg/kg/injection, schedule: Q01DX009 (ip), vehicle: Klucel (hydroxypropylcellulose) (HPC) 94 % of control | [3] 105 % of control | dose: 200.0 mg/kg/injection, schedule: Q01DX009 (ip), vehicle: Klucel (hydroxypropylcellulose) (HPC) 87 % of control | [4] 118 % of control | [5] 89 % of control

N=C(N)SCCCSC(=N)N
inactive: [10] 95 % of control | [12] 97 % of control | dose: 100.0 mg/kg/injection, schedule: Q01DX009 (ip), vehicle: saline 102 % of control | [3] 97 % of control and 98 % of control

Nc1nc(N)c2[nH]cnc2n1
inactive: dose: 12.5 mg/kg/injection, schedule: Q01DX Z (ip), vehicle: carboxymethylcellulose (CMC) 91 % of control | dose: 17.49 mg/kg/injection, schedule: Q01DX Z (ip), vehicle: carboxymethylcellulose (CMC) 86 % of control | [9] 111 % of control | dose: 25.0 mg/kg/injection, schedule: Q01DX Z (ip), vehicle: carboxymethylcellulose (CMC) 93 % of control | dose: 34.98 mg/kg/injection, schedule: Q01DX Z (ip), vehicle: carboxymethylcellulose (CMC) 92 % of control | dose: 44.0 mg/kg/injection, schedule: Q02DX010 (ip), vehicle: other 100 % of control | [11] 110 % of control | dose: 66.0 mg/kg/injection, schedule: Q02DX010 (ip), vehicle: other 105 % of control | dose: 69.95 mg/kg/injection, schedule: Q01DX Z (ip), vehicle: carboxymethylcellulose (CMC) 95 % of control | [6] 97 % of control | dose: 100.0 mg/kg/injection, schedule: Q01DX Z (ip), vehicle: carboxymethylcellulose (CMC) 91 % of control | dose: 100.0 mg/kg/injection, schedule: Q02DX010 (ip), vehicle: other 116 % of control | dose: 139.9 mg/kg/injection, schedule: Q01DX Z (ip), vehicle: carboxymethylcellulose (CMC) 106 % of control | dose: 150.0 mg/kg/injection, schedule: Q02DX010 (ip), vehicle: other 117 % of control | [7] 90 % of control | dose: 225.0 mg/kg/injection, schedule: Q02DX010 (ip), vehicle: other 60 % of control | [8] 97 % of control

O=[N+]([O-])c1ccc(N=NN(CCF)CCF)cc1
inactive: dose: 6.25 mg/kg/injection, schedule: Q01DX Z (ip), vehicle: saline 93 % of control | dose: 10.0 mg/kg/injection, schedule: Q01DX Z (ip), vehicle: saline 97 % of control | dose: 30.0 mg/kg/injection, schedule: Q01DX Z (ip), vehicle: saline 108 % of control
